Measured values published in patent US20250101011A1, “PEPTIDYL NITRILE COMPOUND AND USE THEREOF” (SHANGHAI YIDIAN PHARMACEUTICAL TECHNOLOGY DEVELOPMENT CO., …, priority 2022, published 2025).

Columns and labels:
[1] = target: DPP1 (Homo sapiens (Human), UniProt P53634); test: DPP1 activity inhibition test on U937 cells; type: cell-based; conditions: substrate h-Gly-phe-AFC; for inhibition at 0.005 µM: U-937, 5 nM compound; for inhibition at 0.05 µM: U-937, 50 nM compound; for IC50: intracellular enzyme activity
Method: After incubation at 37° C. for 1 h, add h-Gly-phe-AFC (10 μL) to each well and start reaction.

[2] = target: rhCathepsin C/DPP1 (Homo sapiens (Human), UniProt P53634); test: Test for inhibition of DPP1 enzyme activity; type: biochemical; conditions: recombinant human cathepsin C/DPP1; substrate Gly-Arg-AMC
Method: Recombinant human cathepsin, rhCathepsin C/DPP1, purchased from R&D systems
Gly-Arg-AMC (hydrOCHloride), purchased from Cayman chemical
• 1) Preparation and handling of compounds: Accurately weigh the compound and dissolve it in […] of DMSO to prepare a […] of the bulk, which is further diluted as required. • 2) Screening test: Dilute recombinant human cathepsin rhCathepsin C/DPP1 and recombinant human cathepsin rhCathepsin L with an activating buffer solution, and incubate at 37° C. for 60 min. Add 4 μL of test compound to the white well of the 384-well plate. Add 4 μL of the enzyme mixture after incubation to the white wells. Block the 384-well plate and allow to stand at room temperature for 30 min, and add 8 μL of 2-fold diluted Gly-Arg-AMC (hydrochloride). Block the 384-well plate and allow to stand at room temperature for 2 h. Prepare 4× stop solution and add 4 μL stop solution to white wells. Read fluorescence data on the fluorescence meter Victor Nivo35. • 3) Data analysis:
[…] using Prism Graphpad 8.0.

DPP1, sequence (P53634 25-463): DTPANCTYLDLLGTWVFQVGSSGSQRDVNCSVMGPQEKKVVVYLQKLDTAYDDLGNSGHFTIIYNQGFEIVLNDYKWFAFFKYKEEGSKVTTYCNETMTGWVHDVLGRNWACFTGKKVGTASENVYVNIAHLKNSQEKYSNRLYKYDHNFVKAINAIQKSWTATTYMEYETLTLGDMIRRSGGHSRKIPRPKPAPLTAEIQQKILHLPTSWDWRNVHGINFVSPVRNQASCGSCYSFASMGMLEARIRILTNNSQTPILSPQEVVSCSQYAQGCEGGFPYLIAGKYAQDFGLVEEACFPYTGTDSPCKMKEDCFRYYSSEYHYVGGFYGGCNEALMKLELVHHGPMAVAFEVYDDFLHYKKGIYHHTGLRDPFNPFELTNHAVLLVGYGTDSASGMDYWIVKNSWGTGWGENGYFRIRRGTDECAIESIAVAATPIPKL
rhCathepsin C/DPP1, sequence (P53634 25-134): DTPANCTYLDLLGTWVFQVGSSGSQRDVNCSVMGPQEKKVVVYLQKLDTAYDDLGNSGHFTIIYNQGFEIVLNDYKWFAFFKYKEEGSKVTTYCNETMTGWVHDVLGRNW
rhCathepsin C/DPP1, sequence (P53634 231-394): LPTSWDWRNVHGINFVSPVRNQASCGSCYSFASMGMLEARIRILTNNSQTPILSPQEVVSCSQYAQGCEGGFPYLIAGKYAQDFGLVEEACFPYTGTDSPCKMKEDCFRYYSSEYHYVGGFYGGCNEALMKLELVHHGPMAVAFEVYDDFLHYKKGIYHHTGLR
rhCathepsin C/DPP1, sequence (P53634 395-463): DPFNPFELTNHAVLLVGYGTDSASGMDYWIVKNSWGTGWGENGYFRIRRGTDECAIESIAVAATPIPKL

SMILES | inhibition at 0.005 µM [1] [%] | inhibition at 0.05 µM [1] [%] | IC50 [1] [nM] | IC50 [2] [nM] | Average Inhibition % @5 nM ([1]; 5 nM compound) | Average Inhibition % @50 nM ([1]; 50 nM compound)
N#C[C@H](Cc1ccc(-c2ccc3c(c2)COC3=O)cc1)NC(=O)[C@@H]1CNCCCO1 [Compound D44] | 30 to 75 | 75 to 100 | 14 | 5.2 | – | –
N#C[C@H](Cc1ccc(-c2ccc3c(c2)COC3=O)cc1F)NC(=O)[C@@H]1CNCC2(CC2)CO1 [Compound D78] | 30 to 75 | 75 to 100 | 2.9 | 0.72 | – | –
C[C@H]1OC(=O)c2ccc(-c3ccc(C[C@@H](C#N)NC(=O)[C@@H]4CNCCCO4)c(F)c3)cc21 [Compound D75] | 30 to 75 | 75 to 100 | 3.8 | 2.3 | – | –
N#C[C@H](Cc1ccc(-c2ccc3c(c2)CCC3=O)cc1F)NC(=O)[C@@H]1CNCCCO1 [Compound D60] | 30 to 75 | 75 to 100 | 4.6 | 3.7 | – | –
CN1CC(n2c(=O)oc3ccc(-c4ccc(C[C@@H](C#N)NC(=O)[C@@H]5CNCCCO5)c(F)c4)cc32)C1 [Compound D67] | 30 to 75 | 75 to 100 | 32 | 0.18 | – | –
CN1CCC(=O)c2ccc(-c3ccc(C[C@@H](C#N)NC(=O)[C@@H]4CNCCCO4)c(F)c3)cc21 [Compound D118] | – | – | 2.1 | 1.6 | – | –
CC1OC(=O)c2ccc(-c3ccc(C[C@@H](C#N)NC(=O)[C@@H]4CNCCCO4)c(F)c3)cc21 (stereo partly drawn) [Compound D73] | 30 to 75 | 75 to 100 | 3.8 | 2.5 | – | –
C[C@H]1CNC[C@@H](C(=O)N[C@H](C#N)Cc2ccc(-c3ccc4c(c3)N(C)CCC4=O)cc2F)OC1 [Compound D124] | – | – | – | 11.2 | – | –
CN1CCC(=O)c2ccc(-c3ccc(C[C@@H](C#N)NC(=O)[C@@H]4CNCCCO4)cc3)cc21 [Compound D125] | – | – | – | 6.7 | – | –
CN1CCC2(CC1)OC(=O)c1ccc(-c3ccc(C[C@@H](C#N)NC(=O)[C@@H]4CNCCCO4)c(F)c3)cc12 [Compound D104] | < 30 | < 30 | – | – | – | –
Cn1c(=O)oc2ccc(-c3ccc(C[C@@H](C#N)NC(=O)[C@@H]4CNCc5ccccc5O4)cc3)cc21 [Compound D49] | < 30 | 30 to 75 | – | – | – | –
N#C[C@H](Cc1ccc(-c2ccc3oc(=O)n(CC4COC4)c3c2)cc1F)NC(=O)[C@@H]1CNCCCO1 [Compound D94] | < 30 | < 30 | – | – | – | –
Cn1c(=O)oc2ccc(-c3ccc(C[C@@H](C#N)NC(=O)[C@@H]4CNC[C@@H](F)CO4)c(F)c3)cc21 [Compound D55] | – | – | 6.4 | – | – | –
CN1CCC2(C1)OCc1ccc(-c3ccc(C[C@@H](C#N)NC(=O)[C@@H]4CNCCCO4)cc3)cc12 (stereo partly drawn) [Compound D36] | < 30 | 30 to 75 | – | – | – | –
N#C[C@H](Cc1ccc(-c2ccc3c(c2)C(=O)OC3)cc1)NC(=O)[C@@H]1CNCCCO1 [Compound D45] | < 30 | 30 to 75 | – | – | – | –
Cn1c(=O)oc2ccc(-c3ccc(C[C@@H](C#N)NC(=O)[C@@H]4CNCCCO4)s3)cc21 [Compound D53] | – | – | 16 | – | – | –
Cn1cnc(-n2c(=O)oc3ccc(-c4ccc(C[C@@H](C#N)NC(=O)[C@@H]5CNCCCO5)c(F)c4)cc32)c1 [Compound D62] | < 30 | 30 to 75 | – | – | – | –
C[C@@H](O)Cn1c(=O)oc2ccc(-c3ccc(C[C@@H](C#N)NC(=O)[C@@H]4CNCCCO4)cc3)cc21 [Compound D34] | < 30 | 30 to 75 | – | – | – | –
Cn1c(=O)oc2ccc(-c3ccc(C[C@@H](C#N)NC(=O)[C@@H]4CNCC(F)(F)CO4)cc3)cc21 [Compound D51] | – | – | > 1000 | – | – | –
CS(=O)(=O)Cn1c(=O)oc2ccc(-c3ccc(C[C@@H](C#N)NC(=O)[C@@H]4CNCCCO4)c(F)c3)cc21 [Compound D80] | < 30 | < 30 | – | – | – | –
C[C@H]1OC(=O)c2ccc(-c3ccc(C[C@@H](C#N)NC(=O)[C@@H]4CNCCCO4)[se]3)cc21 [Compound D126] | – | – | – | 10.8 | – | –
N#C[C@H](Cc1ccc(-c2ccc3c(c2)C2(CCN(C4COC4)C2)OC3)cc1F)NC(=O)[C@@H]1CNCCCO1 (stereo partly drawn) [Compound D87] | < 30 | 75 to 100 | 12.8 | – | – | –
CN1Cc2cc(-c3ccc(C[C@@H](C#N)NC(=O)[C@@H]4CNCCCO4)cc3)sc2C1=O [Compound D12] | < 30 | < 30 | – | – | – | –
N#C[C@H](Cc1ccc(-c2ccc3nnnn3c2)cc1)NC(=O)[C@@H]1CNCCCO1 [Compound D06] | < 30 | < 30 | – | – | – | –

SMILES | inhibition at 0.005 µM [1] [%] | inhibition at 0.05 µM [1] [%] | IC50 [1] [nM] | IC50 [2] [nM] | Average Inhibition % @5 nM ([1]; 5 nM compound) | Average Inhibition % @50 nM ([1]; 50 nM compound)
N#C[C@H](Cc1ccc(-c2cc3c(cc2F)C(=O)OC3)cc1F)NC(=O)[C@@H]1CNCCCO1 [Compound D79] | < 30 | < 30 | – | – | – | –
N#C[C@H](Cc1ccc(-c2ccc3c(c2)C(=O)CC3)cc1)NC(=O)[C@@H]1CNCCCO1 [Compound D43] | < 30 | 30 to 75 | – | – | – | –
N#C[C@H](Cc1ccc(-c2ccc3oc(=O)n(C4CS(=O)(=O)C4)c3c2)cc1F)NC(=O)[C@@H]1CNCCCO1 [Compound D71] | < 30 | < 30 | – | – | – | –
Cn1c(=O)oc2ccc(-c3ccc(C[C@@H](C#N)NC(=O)[C@@H]4CNCC5(COC5)CO4)c(F)c3)cc21 [Compound D98] | < 30 | < 30 | – | – | – | –
Cn1c(=O)oc2cc(-c3ccc(C[C@@H](C#N)NC(=O)[C@@H]4CNCCCO4)cc3)ccc21 [Compound D17] | < 30 | 30 to 75 | – | – | – | –
CN1CCC2(C1)OC(=O)c1ccc(-c3ccc(C[C@@H](C#N)NC(=O)[C@@H]4CNCCCO4)cc3)cc12 (stereo partly drawn) [Compound D37] | < 30 | 30 to 75 | – | – | – | –
C[C@@H]1CNC[C@@H](C(=O)N[C@H](C#N)Cc2ccc(-c3ccc4oc(=O)n(C)c4c3)cc2F)OC1 [Compound D110] | – | – | 4.3 | – | – | –
CN1Cc2sc(-c3ccc(C[C@@H](C#N)NC(=O)[C@@H]4CNCCCO4)cc3)cc2C1=O [Compound D14] | < 30 | 30 to 75 | – | – | – | –
N#C[C@H](Cc1ccc(-c2ccc3oc(=O)n(C4CCN(C5COC5)CC4)c3c2)cc1F)NC(=O)[C@@H]1CNCCCO1 [Compound D82] | < 30 | < 30 | – | – | – | –
CN1CCc2nc(-c3ccc(C[C@@H](C#N)NC(=O)[C@@H]4CNCCCO4)cc3)sc2C1 [Compound D18] | < 30 | 30 to 75 | – | – | – | –
Cn1c(=O)oc2ccc(-c3ccc(C[C@@H](C#N)NC(=O)[C@@H]4CNCC5(CC5)CO4)nn3)cc21 [Compound D48] | 30 to 75 | 75 to 100 | 12 | – | – | –
CN1CCN(S(=O)(=O)c2ccc(-c3ccc(C[C@@H](C#N)NC(=O)[C@@H]4CNCCCO4)cc3)cc2)CC1 [Compound D16] | < 30 | 30 to 75 | – | – | – | –
CO/N=C1\CCc2cc(-c3ccc(C[C@@H](C#N)NC(=O)[C@@H]4CNCCCO4)c(F)c3)ccc21 [Compound D65] | – | 30 to 75 | – | – | – | –
CN1CCC2(CC1)OCc1cnc(-c3ccc(C[C@@H](C#N)NC(=O)[C@@H]4CNCCCO4)cc3)cc12 [Compound D39] | < 30 | 30 to 75 | – | – | – | –
N#C[C@H](Cc1ccc(-c2ccc3oc(=O)n(CC4CCO4)c3c2)cc1F)NC(=O)[C@@H]1CNCCCO1 (stereo partly drawn) [Compound D95] | < 30 | 75 to 100 | 17 | – | – | –
N#C[C@H](Cc1ccc(-c2ccc3c(c2)CC(=O)C3)cc1)NC(=O)[C@@H]1CNCCCO1 [Compound D08] | < 30 | 30 to 75 | – | – | – | –
Cn1c(=O)oc2ccc(-c3ccc(C[C@@H](C#N)NC(=O)[C@@H]4CNCC5(CC5)CO4)nc3)cc21 [Compound D47] | < 30 | 75 to 100 | – | – | – | –
Cn1c(=O)oc2ccc(-c3ccc(C[C@@H](C#N)NC(=O)[C@@H]4COCC[C@@H]4N)cc3)cc21 [Compound D52] | < 30 | 30 to 75 | – | – | – | –
CC1(C)Cc2cc(-c3ccc(C[C@@H](C#N)NC(=O)[C@@H]4CNCCCO4)c(F)c3)ccc2C1=O [Compound D117] | 30 to 75 | 75 to 100 | 6 | – | – | –
Cn1c(=O)oc2ccc(-c3ccc(C[C@@H](C#N)NC(=O)[C@@H]4CNC[C@H](F)CO4)cc3)cc21 [Compound D54] | 30 to 75 | 30 to 75 | – | – | – | –
N#C[C@H](Cc1ccc(-c2ccc3nccn3c2)cc1)NC(=O)[C@@H]1CNCCCO1 [Compound D01] | – | – | – | – | − (“−”: inhibition % < 30%) | − (“−”: inhibition % < 30%)
N#C[C@H](Cc1ccc(-c2ccc3c(n2)C2(CCN(C4COC4)CC2)OC3=O)cc1)NC(=O)[C@@H]1CNCCCO1 [Compound D28] | 30 to 75 | 75 to 100 | – | – | – | –
N#C[C@H](Cc1ccc(-c2ccc3oc(=O)n(C4COC4)c3c2)cc1)NC(=O)[C@@H]1CNCCCO1 [Compound D03] | < 30 | 30 to 75 | – | – | – | –
